Entries after “also recorded” stand apart in the source; their conditions may differ.
Assays:
Assay type in all cases: cell-based
BRD4 [1] = target: T1, BRD4 (Homo sapiens, UniProt O60885); assay: CURE-PRO-mediated BRD4 degradation in MCF7 cells, WES (ProteinSimple); design: endogenous in cells
Description: (§1) WES Simple analysis was performed on WES system (ProteinSimple-Biotechne) according to the manufacturer's instructions. Total protein concentrations of cell lysates were determined by the Pierce BCA kit (Thermo Fisher). 3 μL of 0.3 μg/μL of the protein lysate was loaded onto a 12- to 230-kDa WES assay plate (ProteinSimple) where 300 nL sample was withdrawn through a capillary, subjected to electrophoretic separation of proteins by size, and followed by the simultaneous, HRP-based detection of proteins using the Anti-Rabbit Detection Module (Proteinsimple: #DM-001). The electropherograms were checked then the automatic peak detection was manually corrected if it was required.
MCF7 cells (3×10^6) were treated for 4-24 hours continually (FIG. 72), or treated for 4 h, washed and incubated for a further 4-24 h with the compounds solubilized in DMSO. Compounds were added at 10 μM each. Cells were washed, lysed, and clarified by centrifugation. The total protein concentration was quantified by the BCA method (ThermoFisher Sciences). Standardized protein samples were electrophoresed and imaged as described in the WES Proteinsimple section above. FIG. 69 depicts the CURE-PRO-mediated BRD4 degradation for the BRD-E50 monomer, and VHL ligand, 8305.
MCF7 cells (3×10^6) were treated for 24 hours with the compounds solubilized in DMSO. CURE-PRO monomers were added at 10 μM each and the proteasomal inhibitors at 1 μM. Standardized protein samples were electrophoresed and imaged as described in the WES Proteinsimple section above. FIGS. 73 and 75 depicts the dependence of the proteasome for CURE-PRO-mediated BRD4 degradation.
MCF7 cells (3×10^6) were treated for 24 hours with the compounds solubilized in DMSO. CURE-PRO monomers were added at 10 μM. FIG. 74 depicts the CURE-PRO-mediated BRD4 degradation for the BRD-E50 monomer, and VHL ligand, 8305 combined in a 1:1 ratio after 24 h.

BRD4 [2] = target: T1, BRD4; assay: Summary of BRD4 degradation by CURE-PRO pairs, estimated from Western Blot or WES; design: endogenous in cells; settings: for Degradation of BRD4, combination with CRBN ligand 8046: Table 1, aryl-boronic acid BRD4 ligand + 8046; for Degradation of BRD4, combination with CRBN ligand 8066: Table 1, aryl-boronic acid BRD4 ligand + 8066
In short: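 Degradation read-out from immunoblot with ECL, or WES capillary electrophoresis with HRP detection, of RIPA lysates. Cells (Namalwa, Ramos, HeLa, MCF7, HT29 or HCT116) were exposed to DMSO-solubilized compounds for 24 h; a check mark marks 30% to 70% or higher degradation.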

BRD4 [3] = target: T1, BRD4; assay: CURE-PRO-mediated BRD4 degradation in HeLa cells, Western blot; design: endogenous in cells; host or cells: HeLa; settings: 24 h
In short: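 HeLa cells (2.5×10^6) treated 24 h with DMSO-solubilized compounds, degrader pairs combined 1:1, at 1 nM-1 μM, 1-10 μM, 10 μM or 10 and 100 μM each depending on series. RIPA lysates (10-20 μg protein) run on SDS-PAGE and immunoblotted for BRD4 with ECL detection.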

MV-4-11 cells = assay: CellTiter-Glo cell viability, MV-4-11 cells; settings: for loss of cellular viability (toxicity) versus monomers alone: cotreated 1:1 with each of CRBN ligands 8046, 8047 and 8066, MV-4-11, 72 h, 10 nM-100 μM
Description: CellTiter-Glo® 2.0 Cell Viability Assay (Promega) was carried out following the manufacturer's recommendations. Cells were seeded at a density of 1000 cells/well in a white 96 well plates (Corning, #3917) in a total volume of 100 μl with respective monomers, combinations of BRD ligands together with E3 ligase ligands or vehicle control treatment. After a 72 h incubation, 100 ul of the CellTiter-Glo® substrate was added per well and luminescence was read on a Spectramax M5 (Molecular Devices). Dose-response curves were generated using Graphpad Prism software.
MV-4-11 cells (5×10^4) were treated for 24 hours with the sample compounds solubilized in DMSO. The compounds were added at 1 nM-100 μM each. Cellular viability was determined using the CellTiter-Glo® Luminescent Cell Viability Assay (Promega) described above. FIGS. 19-22 depict the CURE-PRO-mediated loss of cellular viability for BRD monomers (JQ1 derivatives comprising of catechol linkers), and CRBN ligand, 8049 (pomalidomide derivatives comprising boronic acid linkers) combined in a 1:1 ratio.
MV-4-11 cells (1×10^4) were treated for 72 hours with the compounds solubilized in DMSO. Compounds were added at 10 nM-100 μM each. Cellular viability was determined using the CellTiter-Glo® Luminescent Cell Viability Assay (Promega) described above. FIGS. 47-54 depict the CURE-PRO-mediated loss of cellular viability for BRD monomers (JQ1 derivatives comprising of boronic acid linkers), and CRBN ligands, 8046, 8047 and 8066 (pomalidomide derivatives comprising diol linkers) combined in a 1:1 ratio.

BRD4 [4] = target: T1, BRD4; assay: CURE-PRO-mediated BRD4 degradation in HeLa cells, WES capillary electrophoresis (ProteinSimple); design: endogenous in cells; host or cells: HeLa; settings: co-dosed with CRBN ligand 8047, HeLa, 24 h, 100 nM-10 μM each
Description: All cell lines were purchased from ATCC or DSMZ and grown at 37° C. with 5% CO2. Human HeLa cells were cultured in complete growth medium (Dulbecco's modified Eagle's medium (DMEM) supplemented with 10% FBS); MCF7 cells were cultured in complete growth medium (Dulbecco's modified Eagle's medium (DMEM) supplemented with 10% FBS and 0.01 mg/ml human recombinant insulin (Sigma Aldrich); Namalwa and Ramos cells were cultured in complete growth medium (RPMI 1640 medium supplemented with 10% FBS); HCT116 and HT29 cells were cultured in complete growth medium (McCoy's 5a Medium supplemented with 10% FBS). For cellular degradation of BRD4 studies cells were seeded in a 12-well plate at 70-80% confluency, allowed to attach overnight, and incubated with the indicated compounds for the indicated time. When indicated, a 15-minute pretreatment with 10 μM pomalidomide, 10 μM VHL298, 10 μM Nutlin3a, 1 μM MG-132 or 1 μM Carfilzomib was performed before the addition of CURE-PROs. For washout studies, after CURE-PRO treatment, media was aspirated and incubated with complete medium for the indicated time before lysis.
as §1
HeLa cells (2.5×10^6) were treated for 4-24 hours with the compounds solubilized in DMSO. After 4 hours, indicated points were washed and cells were left in full growth media. Compounds were added at 10 μM each. Standardized protein samples were electrophoresed and imaged as described in the WES ProteinSimple section above. FIGS. 44 and 45 depict the time-dependence of CURE-PRO-mediated BRD4 degradation with the BRD-E52 ligand (FIG. 44) and BRD-E72 ligand (FIG. 45), both JQ1 derivatives comprising of boronic acid linkers, and the CRBN binding ligands (8046, 8047, and 8066), pomalidomide derivatives comprising diol linkers.
HeLa cells (2.5×10^6) were treated for 24 hours with the compounds solubilized in DMSO. Compounds were added at 100 nM-10 μM each. Standardized protein samples were electrophoresed and imaged as described in the WES ProteinSimple section above. FIG. 46 depicts the concentration-dependence of CURE-PRO-mediated BRD4 degradation and the requirement for monomer dimerization.

[5] = co-treated 1:1 with CRBN ligand 8046, HeLa, 10 μM each
[6] = co-treated 1:1 with CRBN ligand 8047, HeLa, 10 μM each
[7] = co-treated 1:1 with CRBN ligand 8066, HeLa, 10 μM each

Compound | BRD4 degradation (BRD4 [3]; [5]) | BRD4 degradation (BRD4 [3]; [6]) | BRD4 degradation (BRD4 [3]; [7]) | loss of cellular viability (toxicity) versus monomers alone (MV-4-11 cells) | Degradation of BRD4, combination with CRBN ligand 8046 (BRD4 [2]) | Degradation of BRD4, combination with CRBN ligand 8066 (BRD4 [2]) | also measured
COc1ccc2c(c1)C(c1ccc(Cl)cc1)=N[C@@H](CC(=O)NCCNC(=O)c1cccc(B(O)O)c1)c1nnc(C)n1-2 [BRD-E2] |  |  |  |  |  |  | BRD4 degradation with proteasome inhibitors (BRD4 [1]; 1:1 with 8305 at 10 μM, pre-incubation with MG-132 and Carfilzomib 1 μM, MCF7): inhibited by the pre-incubation with MG-132 and Carfilzomib; also recorded: inhibited with the proteasome inhibitors, MG-132 and Carfilzomib; BRD4 degradation (BRD4 [1]; 1:1 with VHL ligand 8305, MCF7, 10 μM each, 4-24 h): caused BRD4 degradation; also recorded: marked BRD4 degradation; Degradation of BRD4, combination with VHL ligand 8305 (BRD4 [2]; Table 3, aryl-boronic acid BRD4 ligand + 8305): √ (A black check mark indicates efficacy of 30% to 70% or higher protein degradation)
COc1ccc2c(c1)C(c1ccc(Cl)cc1)=N[C@@H](CC(=O)NCCNC(=O)/C=C/c1ccc(B(O)O)cc1)c1nnc(C)n1-2 [BRD-E29, (4-((E)-3-((2-(2-((4S)-6-(4-chlorophenyl)-8-methoxy-1-methyl-4H-benzo[f][1,2,4]triazolo[4,3-a][1,4]diazepin-4-yl)acetamido)ethyl)amino)-3-oxoprop-1-en-1-yl)phenyl)boronic acid] | causes degradation of BRD4; also recorded: Degradation is noted | causes degradation of BRD4; also recorded: Degradation is noted | causes degradation of BRD4; also recorded: Degradation is noted | reduced viability; also recorded: increased toxicity | √ (A black check mark indicates efficacy of 30% to 70% or higher protein degradation) | √ (A black check mark indicates efficacy of 30% to 70% or higher protein degradation) | Degradation of BRD4, combination with CRBN ligand 8047 (BRD4 [2]; Table 1, aryl-boronic acid BRD4 ligand + 8047): √ (A black check mark indicates efficacy of 30% to 70% or higher protein degradation)
COc1ccc2c(c1)C(c1ccc(Cl)cc1)=N[C@@H](CC(=O)NCCc1ccc(O)c(O)c1)c1nnc(C)n1-2 [BRD-N10, (S)-2-(6-(4-chlorophenyl)-8-methoxy-1-methyl-4H-benzo[f][1,2,4]triazolo[4,3-a][1,4]diazepin-4-yl)-N-(3,4-dihydroxyphenethyl)acetamide] |  |  |  |  |  |  | BRD4 degradation (BRD4 [3]; BRD4 monomer alone, HeLa, 1-10 μM): there is no degradation of BRD4; BRD4 degradation (BRD4 [3]; co-treated 1:1 with CRBN ligand 8048, HeLa, 1-10 μM each): causes degradation of BRD4; also recorded: capable of degrading BRD4; loss of cellular viability (toxicity) (MV-4-11 cells; co-dosed 1:1 with CRBN ligand 8049, MV-4-11, 24 h, 1 nM-100 μM each): concentration-dependent loss in cellular viability; also recorded: increased toxicity; Degradation of BRD4, combination with CRBN ligand 8048 (BRD4 [2]; Table 4, aromatic 1,2-diol BRD4 ligand + 8048): √ (A black check mark indicates efficacy of 30% to 70% or higher protein degradation); Degradation of BRD4, combination with CRBN ligand 8049 (BRD4 [2]; Table 4, aromatic 1,2-diol BRD4 ligand + 8049): √ (A black check mark indicates efficacy of 30% to 70% or higher protein degradation); Degradation of BRD4, combination with MDM2 ligand 8310 (BRD4 [2]; Table 5, aromatic 1,2-diol BRD4 ligand + 8310): √ (A black check mark indicates efficacy of 30% to 70% or higher protein degradation)
CCNC(=O)C[C@@H]1N=C(c2ccc(Cl)cc2)c2cc(Sc3cccc(B(O)O)c3)ccc2-n2c(C)nnc21 [BRD-E76] | causes degradation of BRD4 | causes degradation of BRD4 |  | reduced viability; also recorded: increased toxicity | √ (A black check mark indicates efficacy of 30% to 70% or higher protein degradation) |  | 
COc1ccc2c(c1)C(c1ccc(Cl)cc1)=N[C@@H](CC(=O)NCCOCCOCCNC(=O)c1cccc(B(O)O)c1)c1nnc(C)n1-2 [BRD-E46] | causes degradation of BRD4; also recorded: Degradation is noted |  | causes degradation of BRD4; also recorded: Degradation is noted | reduced viability; also recorded: increased toxicity | √ (A black check mark indicates efficacy of 30% to 70% or higher protein degradation) | √ (A black check mark indicates efficacy of 30% to 70% or higher protein degradation) | 
CCNC(=O)C[C@@H]1N=C(c2ccc(Sc3ccccc3)cc2)c2cc(OC)ccc2-n2c(C)nnc21 [BRD-E52C, N-ethyl-2-((4S)-8-methoxy-1-methyl-6-(4-(phenylthio)phenyl)-4H-benzo[f][1,2,4]triazolo[4,3-a][1,4]diazepin-4-yl)acetamide] |  |  |  |  |  |  | concentration-dependent BRD4 degradation (BRD4 [4]): failed to induce degradation even at 10 μM
